Measurements taken from US20140273006A1, “METHOD OF THERAPY SELECTION FOR PATIENTS WITH CANCER” (NESTEC S.A., priority 2011, published 2014).
One block for each molecule: values may come before it.

How the values were obtained:
H1975 cells = assay: CEER pathway profiling of H1975 cells after PI3K inhibitor, MEK inhibitor or combination treatment; format: cell-based, human; conditions: for levels of activated PI3K: H1975 cells treated with either PI3K inhibitor, MEK inhibitor, or combinations; for levels of other activated proteins (p-MEK, p-ERK, p-AKT, p-PRAS40, p-70S6K, and p-RPS6): H1975 cells, in response to treatment
Description: (§1) In one particular embodiment, the proximity assay (e.g., CEER) for detecting the activation level or status of an analyte of interest comprises: • (i) incubating the cellular extract with one or a plurality of dilution series of capture antibodies to form a plurality of captured analytes; • (ii) incubating the plurality of captured analytes with detection antibodies comprising one or a plurality of activation state-independent antibodies and one or a plurality of activation state-dependent antibodies specific for the corresponding analytes to form a plurality of detectable captured analytes, • wherein the activation state-independent antibodies are labeled with a facilitating moiety, the activation state-dependent antibodies are labeled with a first member of a signal amplification pair, and the facilitating moiety generates an oxidizing agent which channels to and reacts with the first member of the signal amplification pair; • (iii) incubating the plurality of detectable captured analytes with a second member of the signal amplification pair to generate an amplified signal; and • (iv) detecting the amplified signal generated from the first and second members of the signal amplification pair.
The levels of other downstream signaling components of the pathway were measured, including HER1, HER2, cMET, PI3K, AKT, ERK, PTEN, MEK, p70S6K, PRAS40, RPS6 and PDK. Cell lines derived from non-small cell lung cancer such as NCI-H460, NCI-H647, NCI-H1155, NCI-1299, NCI-1975, NCI-H2228, and NCI-H661 were also used. The different therapies tested included a PI3K inhibitor alone at low or high dose, a MEK inhibitor alone at low or high dose, and a PI3K inhibitor plus a MEK inhibitor together at low dose or high dose. The cells were assayed at either 4 hours after treatment or 24 hours (see, * in FIGS. 6-10) after treatment.

PI3K-related pathways = assay: CEER-based analysis of BCA clinical samples from patients treated with BYL719; format: in vivo, human
Description: CEER analysis includes normalizing the measured expression/activation levels of signaling transduction analytes against standard controls using statistical algorithms. In particular, Relative Fluorescence Unit (RFU) values are converted to Computed Units (CU), a standard functional unit of measure based on cell line controls with known levels of analyte expression. For each slide of the CEER assay, a standard curve of serial diluted cell lysate is prepared for a particular analyte-positive cell line (e.g., HER1-positive cell line is MDA-MB-468; HER2-positive cell line is SKBr3). Thus, normalized levels of each particular analyte and the degree of phosphorylation in each sample can be obtained against standard cell lines.
This example illustrates a CEER-based analysis of BCA clinical samples from patients treated with a PI3K inhibitor, BYL719 (Novartis). In particular, signaling pathway profiles from individual patients are shown to shift during the course of BYL719 treatment. Therefore, CEER-based analysis of PI3K-related pathways allows for responsive, individualized management of BYL719 treatment to improve clinical outcomes. Oncogenic receptor tyrosine kinases (HER1, HER2, HER3, cMET, IGF-1R, and cKIT) were quantified, as well as PI3K and other tyrosine kinase signaling cascade components including SHC, AKT, ERK, MEK, RSK, pRAS 40, RPS6, P70S6K, and PTEN. Levels of total protein and activated protein were measured.

PI3K = assay: CEER profile of FNA sample of Patient #3 after PI3K inhibitor treatment; format: in vivo, human; conditions: Patient #3, FNA sample after treatment; confirmed by CT scan
Description: In a retrospective study, a series of samples taken from patients with cancer were evaluated to determine if pathway profiling using the CEER assay is predictive of responsiveness to PI3K treatment. Samples analyzed included those from patients on a therapy time course, e.g., prior to receiving therapy, after initiating therapy, and during the course of therapy.
Following treatment with the PI3K inhibitor drug BAY806946, another sample was taken and analyzed. […] This finding was confirmed by CT scan.

[1] = tested on: Stage III triple negative breast cancer; assay: Clinical response of patients with triple negative breast cancer to combination therapy; format: in vivo, human; conditions: Patient #4; combination therapy of Herceptin and Lapatinib
Source text: Patient #4 represents a patient diagnosed with Stage III triple negative breast cancer (e.g., ER-, PR-, HER2-). The patient underwent radical mastectomy.
Patient #5 represents a patient diagnosed with Stage III triple negative breast cancer (e.g., ER-, PR-, HER2-). The patient underwent radical mastectomy.

[2] = tested on: PI3K, HER2 and IGF1R activation; assay: CEER pathway profile of Patient #5 samples before and after treatment; format: in vivo, human; conditions: Patient #5, after treatment vs baseline
Source text: The samples were cerebrospinal fluid (CSF), fine needle aspirate (FNA) and a biopsy.

H1651 = assay: IC50 of the PI3K inhibitor drug (GDC0941) versus activated PI3K levels, H1651; format: cell-based, human; conditions: H1651, cell line with PI3K activation
Source text: (§2) FIG. 13 illustrates that the CEER assay can be used to calculate the IC50 of an anti-cancer drug relative to the level of activated PI3K and other downstream components of the HER1/HER2/cMET pathway. […] In some cancer cells inhibition of PI3K activation corresponds to inhibition of activation of downstream proteins. In addition the extent of the inhibition is specific to the cell line and the inhibitor treatment.
(§3) The relationship between the IC50 of the PI3K inhibitor drug (GDC0941) and activated PI3K levels was analyzed in several cell lines. It was determined that cell lines (e.g., H1651 or H2087) with PI3K activation have low IC50. H1651 cells carry no known genetic mutations but have high EGFR expression. H2087 has NRAS and BRAF mutations. Cell lines (e.g., Calu-6) with two more alterations such as multiple mutations (e.g., MAPK mutations) and PI3K activation had high IC50 values. Thus, phospho-PI3K can be an indicator or predictor of sensitivity to PI3K inhibitors.

H2087 = assay: IC50 of the PI3K inhibitor drug (GDC0941) versus activated PI3K levels, H2087; format: cell-based, human; conditions: H2087, cell line with PI3K activation
Source text: as §2, §3

Calu-6 = assay: IC50 of the PI3K inhibitor drug (GDC0941) versus activated PI3K levels, Calu-6; format: cell-based, human; conditions: Calu-6, two more alterations (multiple mutations and PI3K activation)
Source text: as §2, §3

[3] = tested on: cell lines with inactive PTEN; assay: IC50 of the PI3K inhibitor in cell lines by PTEN status (FIG. 14); format: cell-based, human; conditions: cell lines with inactive PTEN (point mutation or null mutation)
Description: as §3

cell line H460 = assay: CEER pathway profiling of cell line H460 after PI3K inhibitor, MEK inhibitor or combination treatment; format: cell-based, human; conditions: PI3K inhibitor alone or in combination with a MEK inhibitor, day 8, 9, 12, 13, 4 hours or 24 hours of drug exposure
Description: as §1
The levels of other downstream signaling components of the pathway were measured, including HER1, HER2, cMET, PI3K, AKT, ERK, PTEN, MEK, p70S6K, PRAS40, RPS6 and PDK. […]

Structure (SMILES): COc1cc(F)c(F)c(Nc2ccc(I)cc2F)c1NS(=O)(=O)C1(C[C@H](O)CO)CC1 [BAY869766]
levels of activated PI3K (H1975 cells): relatively similar
levels of other activated proteins (p-MEK, p-ERK, p-AKT, p-PRAS40, p-70S6K, and p-RPS6) (H1975 cells): greatly lower

Structure (SMILES): Cc1nc(NC(=O)N2CCC[C@H]2C(N)=O)sc1-c1ccnc(C(C)(C)C(F)(F)F)c1 [BYL719]
level of activated HER3 (PI3K-related pathways; Patient 1, Day 8 of treatment): increased
p-AKT, p-pPRAS, p-P70S6, and p-RPS6 (PI3K-related pathways; Patient 1, Day 8 of treatment): downregulation
total HER3 expression (PI3K-related pathways; Patient 1, Day 8 of treatment): increased
HER3 expression and activation (PI3K-related pathways; Patient 1, Day 28 of treatment): higher than at Day 8
p-AKT, p-PRAS, p-P70S6 and p-RPS6 levels (PI3K-related pathways; Patient 1, Day 28 of treatment): higher than at Day 8
activation of PRAS40 (PI3K-related pathways; Patient 1, course of treatment): initial decrease in activation of PRAS40 was observed, followed by an increase
activation of AKT (PI3K-related pathways; Patient 1, upon treatment): decreased
activation of HER3, ERK, MEK, and RSK (PI3K-related pathways; Patient 1, upon treatment): increased
p-AKT and p-PRAS (PI3K-related pathways; Patient 2, Day 8 of treatment): downregulated
p-MEK, p-ERK, and p-RSK (PI3K-related pathways; Patient 2, Day 8 of treatment): upregulated
p-AKT, p-PRAS, p-MEK, p-ERK, and p-RSK (PI3K-related pathways; Patient 2, Day 28): down-regulated
activation of ERK, MEK, and RSK (PI3K-related pathways; Patient 2, course of treatment): initial increase, followed by a decrease
activation of AKT and PRAS40 (PI3K-related pathways; Patient 2, upon treatment): decrease
activated HER1 (PI3K-related pathways; Patient 3, Day 8): upregulated
activated HER2, HER3 and cMET (PI3K-related pathways; Patient 3, Day 8): down-regulated
levels of p-AKT, p-PRAS, p-MEK, p-ERK and p-RSK (PI3K-related pathways; Patient 3, Day 8): downregulated
RTK activation (PI3K-related pathways; Patient 3, upon treatment): general decrease
PRAS40 activation (PI3K-related pathways; Patient 4): decrease
p-AKT, p-PRAS, p-MEK, p-ERK, and p-RSK (PI3K-related pathways; Patient 4, Day 8): downregulation
PRAS40 activation (PI3K-related pathways; Patient 5): decrease
p-MEK, p-ERK and p-RSK levels (PI3K-related pathways; Patient 5, Day 8 of therapy): Little change
P-AKT and p-RAS (PI3K-related pathways; Patient 5, on therapy): slightly upregulated
p-RPS6 (PI3K-related pathways; Patient 5, on therapy): highly upregulated

Structure (SMILES): COc1c(OCCCN2CCOCC2)ccc2c1N=C(NC(=O)c1cnc(N)nc1)N1CCN=C21 [BAY806946]
PI3K driven cell proliferation (PI3K): successfully inhibited

Structure (SMILES): CS(=O)(=O)CCNCc1ccc(-c2ccc3ncnc(Nc4ccc(OCc5cccc(F)c5)c(Cl)c4)c3c2)o1 [Lapatinib, lapatinib]
response to treatment [1]: responded to treatment
PI3K activation as well as HER2 and IGF1R activation [2]: decreased

IC50 (H1651): low
IC50 (H2087): low
IC50 (Calu-6): high
IC50 values compared with cell lines with PTEN wild-type status [3]: higher
Structure (SMILES): CS(=O)(=O)N1CCN(Cc2cc3nc(-c4cccc5[nH]ncc45)nc(N4CCOCC4)c3s2)CC1 [GDC0941]

Structure (SMILES): COc1c(OCCCN2CCOCC2)ccc2c1N=C(NC(=O)c1cnc(N)nc1)N1CCN=C21.Cl.Cl [BAY841236]
activated proteins of the HER1/HER2/cMET pathway (p-PI3K, p-AKT, p-PRAS40, p-70S6K, and p-RPS6) (cell line H460): downregulated
levels of activated PI3K (H1975 cells): relatively similar
levels of other activated proteins (p-MEK, p-ERK, p-AKT, p-PRAS40, p-70S6K, and p-RPS6) (H1975 cells): greatly lower
